How the values were obtained:
blood pressure = conditions: J. Med. Chem. Vol. 11, p. 811 (1968); cited from earlier work
[1] = system: normotensive anaesthetized rats; assay: Hypotensive activity in normotensive anaesthetized rats; type: in vivo, rat (Sprague Dowley); conditions: for Δ mean blood pressure: at time of peak effect
Experimental: Male albino Sprague Dowley strain rats were anaesthetized with pentobarbital and fastened to rat boards in a supine position. The left carotid artery was exposed and cannulated with polyethylene cannula connected through a Statham pressure transducer to a Grass Polygraph Recorder. […] The compound was dissolved in dilute HCl. […] Table 1 summarizes the effects on mean blood pressure at the time of peak effect.

[2] = system: conscious spontaneously hypertensive rats; assay: Antihypertensive activity in conscious spontaneously hypertensive rats; type: in vivo, rat (spontaneously hypertensive Okamoto strain)
Experimental: Male albino rats, spontaneously hypertensive Okamoto strain, fasting 16 hours before the experiments were used. The conscious animals were restrained in a plastic cage and a cuff was secured around the tail. The cuff was connected with an electronic blood pressure recorder. The systolic blood pressure and the heart rate were measured before and 2, 4, 6, and 24 hours after the administration of compounds. The compounds were suspended or dissolved in carboxymethylcellulose 0.5%. […] There are also included, for comparison, the results obtained under the same experimental conditions with some known antihypertensive drugs, and the approximate oral LD50 in mice are stated.

[3] = system: conscious normotensive dogs; assay: Hypotensive activity in conscious normotensive dogs; type: in vivo, dog (mongrel); conditions: 0.1 mg/kg oral
Experimental: Hypotensive activity in conscious normotensive dogs
Mongrel dogs of both sexes, fasting 16 hours before the experiment were used. […] The compounds were orally administered in gelatine capsules.

cats = assay: Hypotensive action in anaesthetized cats (ΔBP, ΔHR); type: in vivo, cat
Experimental: (§1) Hypotensive action and various cardiovascular and autonomic responses in cats.
(§2) Cats of both sexes anaestetized with pentobarbital […]. were used. The left carotid artery was exposed and cannulated with polyethylene cannula connected through a Statham pressure transducer to a Grass Polygraph Recorder. […] The compound was administered dissolved in dilute HCl in a volume of 0.4 ml. […] Both procedures are known to produce pressor effects. […]

[4] = system: vasopressor response to norepinephrine; assay: Reduction of vasopressor response to norepinephrine (NE) in cats; type: in vivo, cat; conditions: 0.01 mg/kg i.v.; norepinephrine hydrochloride 1 meg/kg i.v.
Experimental: as §1, §2

[5] = system: common carotid artery occlusion pressor response; assay: Reduction of pressor response to common carotid artery occlusion (CO) in cats; type: in vivo, cat; conditions: 0.01 mg/kg i.v.; carotid artery occlusion 45 secs
Experimental: as §1, §2

nictitating membrane = assay: Reduction of contraction of nictitating membrane, pre- and postganglionic stimulation, in cats; type: in vivo, cat; conditions: for Nict. Membr. post % reduction: postganglionic stimulation (3 V, 1 msec, 5 secs); for Nict. Membr. pre % reduction: preganglionic stimulation (3 V, 1 msec, 40 Hz, 5 secs)
Experimental: as §1, §2

[6] = 0.01 mg/kg i.v., line with NE/CO
[7] = 0.01 mg/kg i.v., line with nictitating membrane
[8] = 0.05 mg/kg i.v., line with nictitating membrane

CCC(C)(C)NC(=N)NC#N [Guancydine, N-cyano-N'-tert-pentylguanidine]
hypotensive effect (literature) (blood pressure): the most potent of the compounds of the above-mentioned literature

CC(C)(C)NC(=NC#N)Nc1cccnc1 [P 1060, N-tert-Butyl-N"-cyano-N'-3-pyridylcuanidine]
duration ([1]; 0.002 mg/kg i.v.): 3 min
Δ mean blood pressure ([1]; 0.002 mg/kg i.v.): -70 mm Hg
duration ([1]; 0.005 mg/kg i.v.): 12 min
Δ mean blood pressure ([1]; 0.005 mg/kg i.v.): -70 mm Hg
duration ([1]; 0.010 mg/kg i.v.): > 45 min
Δ mean blood pressure ([1]; 0.010 mg/kg i.v.): -85 mm Hg
BP ([2]; 0.01 mg/kg, 2 hours): 141 mm Hg
HR ([2]; 0.01 mg/kg, 2 hours): 419 beats/minute
BP ([2]; 0.01 mg/kg, 4 hours): 145 mm Hg
HR ([2]; 0.01 mg/kg, 4 hours): 423 beats/minute
BP ([2]; 0.01 mg/kg, 6 hours): 146 mm Hg
HR ([2]; 0.01 mg/kg, 6 hours): 428 beats/minute
BP ([2]; 0.01 mg/kg, 24 hours): 176 mm Hg
HR ([2]; 0.01 mg/kg, 24 hours): 402 beats/minute
BP ([2]; 0.05 mg/kg, 2 hours): 126 mm Hg
HR ([2]; 0.05 mg/kg, 2 hours): 422 beats/minute
BP ([2]; 0.05 mg/kg, 4 hours): 132 mm Hg
HR ([2]; 0.05 mg/kg, 4 hours): 420 beats/minute
BP ([2]; 0.05 mg/kg, 6 hours): 127 mm Hg
HR ([2]; 0.05 mg/kg, 6 hours): 410 beats/minute
BP ([2]; 0.05 mg/kg, 24 hours): 170 mm Hg
HR ([2]; 0.05 mg/kg, 24 hours): 386 beats/minute
BP ([2]; 0.1 mg/kg, 2 hours): 118 mm Hg
HR ([2]; 0.1 mg/kg, 2 hours): 420 beats/minute
BP ([2]; 0.1 mg/kg, 4 hours): < 100 mm Hg
HR ([2]; 0.1 mg/kg, 4 hours): 426 beats/minute
BP ([2]; 0.1 mg/kg, 6 hours): 114 mm Hg
HR ([2]; 0.1 mg/kg, 6 hours): 422 beats/minute
BP ([2]; 0.1 mg/kg, 24 hours): 170 mm Hg
HR ([2]; 0.1 mg/kg, 24 hours): 408 beats/minute
BP ([2]; 0.5 mg/kg, 2 hours): < 100 mm Hg
BP ([2]; 0.5 mg/kg, 4 hours): < 100 mm Hg
BP ([2]; 0.5 mg/kg, 6 hours): < 100 mm Hg
BP ([2]; 0.5 mg/kg, 24 hours): 153 mm Hg
HR ([2]; 0.5 mg/kg, 24 hours): 413 beats/minute
BP ([2]; 1.0 mg/kg, 2 hours): < 100 mm Hg
BP ([2]; 1.0 mg/kg, 4 hours): < 100 mm Hg
BP ([2]; 1.0 mg/kg, 6 hours): < 100 mm Hg
BP ([2]; 1.0 mg/kg, 24 hours): 126 mm Hg
HR ([2]; 1.0 mg/kg, 24 hours): 405 beats/minute
BP ([3]; Dog I, 1 hour): 75 mm Hg
HR ([3]; Dog I, 1 hour): 152 beats/minute
UV ([3]; Dog I, 1 hour): 2.3 mL
BP ([3]; Dog I, 2 hours): 80 mm Hg
HR ([3]; Dog I, 2 hours): 180 beats/minute
UV ([3]; Dog I, 2 hours): 7.1 mL
BP ([3]; Dog I, 3 hours): 90 mm Hg
HR ([3]; Dog I, 3 hours): 152 beats/minute
UV ([3]; Dog I, 3 hours): 11 mL
BP ([3]; Dog I, 4 hours): 120 mm Hg
HR ([3]; Dog I, 4 hours): 140 beats/minute
UV ([3]; Dog I, 4 hours): 22 mL
BP ([3]; Dog II, 1 hour): 100 mm Hg
HR ([3]; Dog II, 1 hour): 112 beats/minute
UV ([3]; Dog II, 1 hour): 8 mL
BP ([3]; Dog II, 2 hours): 95 mm Hg
HR ([3]; Dog II, 2 hours): 128 beats/minute
UV ([3]; Dog II, 2 hours): 12.5 mL
BP ([3]; Dog II, 3 hours): 95 mm Hg
HR ([3]; Dog II, 3 hours): 104 beats/minute
UV ([3]; Dog II, 3 hours): 22.5 mL
BP ([3]; Dog II, 4 hours): 105 mm Hg
HR ([3]; Dog II, 4 hours): 100 beats/minute
UV ([3]; Dog II, 4 hours): 16 mL
BP ([3]; Dog III, 1 hour): 65 mm Hg
HR ([3]; Dog III, 1 hour): 172 beats/minute
UV ([3]; Dog III, 1 hour): 22 mL
BP ([3]; Dog III, 2 hours): 115 mm Hg
HR ([3]; Dog III, 2 hours): 104 beats/minute
UV ([3]; Dog III, 2 hours): 20 mL
BP ([3]; Dog III, 3 hours): 110 mm Hg
HR ([3]; Dog III, 3 hours): 92 beats/minute
UV ([3]; Dog III, 3 hours): 12 mL
BP ([3]; Dog III, 4 hours): 125 mm Hg
HR ([3]; Dog III, 4 hours): 88 beats/minute
UV ([3]; Dog III, 4 hours): 14 mL
ΔBP (cats; [6]): 90 mm Hg
ΔHR (cats; [6]): 20 beats/min.
ΔBP (cats; [7]): 90 mm Hg
ΔHR (cats; [7]): 35 beats/min.
ΔBP (cats; [8]): 110 mm Hg
ΔHR (cats; [8]): 30 beats/min.
NE % reduction [4]: 50%
CO % reduction [5]: 100%
Nict. Membr. post % reduction (nictitating membrane; 0.01 mg/kg i.v.): 12%
Nict. Membr. pre % reduction (nictitating membrane; 0.01 mg/kg i.v.): 20%
Nict. Membr. post % reduction (nictitating membrane; 0.05 mg/kg i.v.): 21%
Nict. Membr. pre % reduction (nictitating membrane; 0.05 mg/kg i.v.): 12%
